Test results from patent US20260272868A1 (priority 2022, published 2026).
Where “and” joins values, the source holds several entries; their conditions need not be identical. Identical values can stand only once. Like-named read-outs stand apart in the source and are kept apart here.

Experiments:
5-HT2A receptor = target: T1, 5-HT2A receptor (Homo sapiens, UniProt P28223); conditions: cited from earlier work
T1 construct: (~mg per ~70 kg human, route); host or cells: human subjects (in vivo doses)

[1] = tested on: head twitch response (HTR); assay type: in vivo, mice
Description: Male C57BL/6 mice (~7-9 weeks old) were used in these studies. Mice were housed 2 per cage under standard temperature- and humidity-controlled laboratory conditions with a 12-hour light/dark cycle. Mice had free access to food and water.
Both compounds were dissolved in saline vehicle at a dose volume of 10 mL/kg. Doses were corrected for salt form so that the dose administered represented free base.
Mice were randomly assigned to 1 of 6 treatment groups consisting of 2 subcutaneous injections (see Table 1), which were administered according to the schedule in FIG. 1. […] Behavior was videotaped by a camera (GoPro Hero 9) mounted above the testing chambers. Recorded video was uploaded for analysis of head twitch behavior. Number of head twitch responses (HTRs) was recorded for each animal for each 2-min bin. For each treatment group, the mean number of HTRs in each 2- or 10-min bin, and across the whole 30-min recording period, were analyzed.

in vivo = conditions: male, C57BL/6, mouse
Description: Male C57BL/6 mice, aged 8-12 weeks, were used in these studies. Mice were housed 4 per cage under standard temperature- and humidity-controlled laboratory conditions with a 12-hour light/dark cycle. Mice had free access to food and water but were fasted from 4 h prior to and until 2 h after dosing. Animals were randomly assigned to treatment groups.
Doses were corrected for salt form so that the dose administered represented free base.
Immediately after blood collection, plasma was harvested by centrifugation at 4,000 rpm for 10 min at 4° C. and samples were stored at −70±10° C. until bioanalysis. Following blood collection, animals were immediately sacrificed, the abdominal vena-cava was cut open, the whole body was perfused from the heart using 10 mL of normal saline, and brain samples were collected from all animals. After isolation, brain samples were rinsed three times in ice-cold normal saline (for 5-10 seconds/rinse using ~5-10 mL normal saline in a disposable petri dish for each rinse) and dried on blotting paper. Brain samples were homogenized using ice-cold phosphate-buffered saline (pH 7.4). Total homogenate volume was three times the tissue weight. All homogenates were stored at −70±10° C. until bioanalysis. For bioanalysis, 20 μL aliquots of plasma/brain study samples or spiked plasma/brain calibration standards were added to individual pre-labeled micro-centrifuge tubes followed by 200 μL of an internal standard solution (cetirizine, 50 ng/mL in acetonitrile) except for blanks, where 200 μL of acetonitrile was added. Samples were vortexed for 5 minutes and then centrifuged for 10 minutes at 4,000 rpm at 4° C. Following centrifugation, 200 μL of each clear supernatant was transferred to a 96-well plate and analyzed with a fit-for-purpose LC-MS/MS method, with authentic samples of each analyte used for calibration and identification.

[2] = cited from earlier work
[3] = Plasma protein binding, rapid equilibrium dialysis, human plasma; assay type: in vitro ADME
Description: (§1) A 1 mM stock solution of trazadone was prepared in DMSO and diluted 200-fold in mouse or human plasma to yield a final concentration of 5 μM. The final DMSO concentration was 0.5%. Rapid equilibrium dialysis (RED) was performed with a RED device containing a dialysis membrane with a molecular weight cut-off of 8,000 Daltons. Each dialysis insert contains two chambers. The red chamber is for plasma while the white chamber is for buffer.
(§2) For each dialysis insert, aliquots (200 μL) of positive control or test compound at 5 μM (n=2) were separately added to the plasma chamber and 350 μL of phosphate buffered saline (pH 7.4) was added to the buffer chamber. After sealing the RED device with an adhesive film, dialysis was performed in an incubator at 37° C. with shaking at 300 RPM for 4 hours. To assess recovery and stability, 50 μL aliquots of positive control and test compound were added to 96-deep well plates and quenched with 400 μL acetonitrile (for 0 min), while comparator aliquots were incubated at 37° C. for 4 hours along with the RED device.
(§3) Following dialysis, an aliquot of 50 μL was removed from each well (both plasma and buffer side) and diluted with an equal volume of the opposite matrix (dialyzed with the other matrix) to nullify the matrix effect. Similarly, 50 μL of buffer was added to recovery and stability samples. An aliquot of 100 μL was submitted for LC-MS/MS analysis. […]

[4] = Plasma protein binding, rapid equilibrium dialysis, mouse plasma; assay type: in vitro ADME
Description: as §1, §2, §3

[5] = Human plasma pharmacokinetic parameters of trazodone collected from the literature; assay type: in vivo; conditions: mean of literature values

T1 sequence (P28223 whole entry): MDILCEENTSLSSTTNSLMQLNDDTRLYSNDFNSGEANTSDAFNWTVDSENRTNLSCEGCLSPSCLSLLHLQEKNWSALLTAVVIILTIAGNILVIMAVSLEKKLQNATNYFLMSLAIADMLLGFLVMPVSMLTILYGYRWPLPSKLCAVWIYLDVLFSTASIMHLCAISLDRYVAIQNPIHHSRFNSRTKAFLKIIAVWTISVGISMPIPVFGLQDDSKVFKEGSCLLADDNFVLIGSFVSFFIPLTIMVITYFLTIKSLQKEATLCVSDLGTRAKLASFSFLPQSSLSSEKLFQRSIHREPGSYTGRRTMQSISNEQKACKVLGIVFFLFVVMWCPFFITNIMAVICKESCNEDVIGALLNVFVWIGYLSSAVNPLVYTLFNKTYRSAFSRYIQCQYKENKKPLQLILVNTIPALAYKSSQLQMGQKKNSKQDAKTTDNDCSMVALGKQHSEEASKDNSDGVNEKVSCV

COc1cc(CCN)c(OC)cc1Br [2C-B]
Typical Fully Psychedelic Dose Range (5-HT2A receptor; oral): 15-25, oral ~mg per ~70 kg human

CCc1cc(OC)c(CCN)cc1OC [2C-E, 2-(4-Ethyl-2,5-dimethoxyphenyl)ethanamine]
Typical Fully Psychedelic Dose Range (5-HT2A receptor; oral): 10-20, oral ~mg per ~70 kg human

COc1ccc2[nH]cc(CCN(C)C)c2c1 [5-MeO-DMT, 5-methoxy-N,N-dimethyltryptamine]
Typical Fully Psychedelic Dose Range (5-HT2A receptor; smoked): 5-10, smoked ~mg per ~70 kg human

CN(C)CCc1c[nH]c2ccccc12 [DMT, N,N-dimethyltryptamine]
Typical Fully Psychedelic Dose Range (5-HT2A receptor; smoked): 20-40, smoked ~mg per ~70 kg human

COc1cc(CC(C)N)c(OC)cc1C (stereo not shown) [DOM, 2,5-dimethoxy-4-methylamphetamine]
Typical Fully Psychedelic Dose Range (5-HT2A receptor; oral): 3-5, oral ~mg per ~70 kg human

CCN(CC)C(=O)[C@@H]1C=C2c3cccc4[nH]cc(c34)C[C@H]2N(C)C1 [LSD, lysergic acid diethylamide]
Typical Fully Psychedelic Dose Range (5-HT2A receptor; oral): 0.1-0.2, oral ~mg per ~70 kg human

COc1cc(CCN)cc(OC)c1OC [mescaline]
Typical Fully Psychedelic Dose Range (5-HT2A receptor; oral): 200-400, oral ~mg per ~70 kg human

CN(C)CCc1c[nH]c2cccc(O)c12 [psilocin]
Typical Fully Psychedelic Dose Range (5-HT2A receptor; oral): 15-25, oral ~mg per ~70 kg human

O=c1n(CCCN2CCN(c3cccc(Cl)c3)CC2)nc2ccccn12 [trazodone]
HTR reversal quantified in 10-minute bins ([1]; 0-10, 10-20, 20-30 min post trazodone, even at the lowest dose): rapid and robust HTR reversal effect | onset of reversal of DOPR HTR ([1]; all trazodone doses tested, SC, 45 min after DOPR 3.2 mg/kg SC): ≤ 2 min | persistence of HTR reversal effect ([1]; all trazodone doses tested, limited by recording period): ≥ 30 min | reversal of DOPR-induced HTR in the 20-30-minute time bin ([1]; lowest dose of trazodone (1 mg/kg SC)): full reversal | minimum efficacious concentration (MEC) in plasma for reversal ([1]; mice, total plasma concentration 25 min after 1 mg/kg SC trazodone): ≤ 369 ng/mL | reversal of HTR induced by DOPR ([1]; trazodone 1, 1.8, 3.2 or 10 mg/kg SC 45 min after DOPR 3.2 mg/kg SC, 30-min recording, all doses incl. lowest): fully reversed | concentration at 5 min (in vivo; 1 mg/kg): 800 ng/mL and 700 ng/g | concentration at 15 min (in vivo; 1 mg/kg): 504 ng/mL and 584 ng/g | concentration at 25 min (in vivo; 1 mg/kg): 369 ng/mL and 255 ng/g | concentration at 5 min (in vivo; 3.2 mg/kg): 1480 ng/mL and 1750 ng/g | concentration at 15 min (in vivo; 3.2 mg/kg): 1350 ng/mL and 1600 ng/g | concentration at 25 min (in vivo; 3.2 mg/kg): 1020 ng/mL and 674 ng/g | concentration at 5 min (in vivo; 10 mg/kg): 3490 ng/mL and 7930 ng/g | concentration at 15 min (in vivo; 10 mg/kg): 2870 ng/mL and 5100 ng/g | concentration at 25 min (in vivo; 10 mg/kg): 1910 ng/mL and 3580 ng/g | T1/2 ([2]; 25 mg IV, Greenblatt, 1987): 5.3 h | Cmax (ng/mL per mg dosed) ([2]; 50 mg PC, Greenblatt, 1987): 18.8 ng/mL per mg dosed | T1/2 ([2]; 50 mg PC, Greenblatt, 1987): 5.2 h | Tmax ([2]; 50 mg PC, Greenblatt, 1987): 1.02 h | Cmax (ng/mL per mg dosed) ([2]; 50 mg PO, Gammans, 1984): 17.16 ng/mL per mg dosed | T1/2 ([2]; 50 mg PO, Gammans, 1984): 13.3 h | Tmax ([2]; 50 mg PO, Gammans, 1984): 0.9 h | T1/2 ([2]; 90 mg IV, Nilsen, 1992): 7.3 h | Cmax (ng/mL per mg dosed) ([2]; 100 mg PO, Bayer, 1983): 16 ng/mL per mg dosed | T1/2 ([2]; 100 mg PO, Bayer, 1983): 6.0 h | Tmax ([2]; 100 mg PO, Bayer, 1983): 2 h | Cmax (ng/mL per mg dosed) ([2]; 100 mg PO, Kale, 2015): 15.47 ng/mL per mg dosed | T1/2 ([2]; 100 mg PO, Kale, 2015): 13.1 h | Tmax ([2]; 100 mg PO, Kale, 2015): 2.25 h | Cmax (ng/mL per mg dosed) ([2]; 100 mg PO, Nilsen, 1992): 18.8 ng/mL per mg dosed | T1/2 ([2]; 100 mg PO, Nilsen, 1992): 7.8 h | Tmax ([2]; 100 mg PO, Nilsen, 1992): 1.34 h | half-life ([2]; human): 6 to 12 h | bound fraction in plasma ([3]; 5 μM, 4 hours, 37° C.): 90.2% | fraction unbound at 4 h, 5 μM ([3]; pH 7.4, 37° C.): 0.098 | bound fraction in plasma ([4]; 5 μM, 4 hours, 37° C.): 94.4% | fraction unbound at 4 h, 5 μM ([4]; pH 7.4, 37° C.): 0.056 | Cmax (ng/mL per mg dosed) ([5]; PO): 17.2 ng/mL per mg dosed | half-life ([5]; human, plasma, IV): 6.3 h | Tmax ([5]; human, plasma, PO): 1.5 h | half-life ([5]; human, plasma, PO): 9.1 h
